Patent US20130034597A1, “ORALLY BIOAVAILABLE PEPTIDE DRUG COMPOSITIONS AND METHODS THEREOF” (AEGIS THERAPEUTICS LLC, priority 2011, published 2013)
Positions of bridges follow the written chain, without caps; N, C: chain ends. Non-standard residues stand in square brackets, D forms with d. Residues, ends and D or L forms follow the SMILES beside them. d2Nal = N[C@H](Cc1ccc2ccccc2c1)C(=O)O

Legend:
[1] = biological target: somatostatin receptor (SSTR) subtype 2 (Homo sapiens, UniProt P30874); details: cited from earlier work
[2] = intranasal delivery; cited from earlier work
[3] = Clinical signs during the TEEE pharmacokinetic study; assay type: in vivo, Male Sprague-Dawley rats; details: oral (2.5-10 mg/kg capsules) or intravenous (0.1, 1 mg/kg) administration, rats
Description: Male Sprague-Dawley rats are ca 8-9 week old at onset of treatment (weight at onset of treatment, 348-398 g). Animals are allocated into groups of 3 rats/group. Immediately following arrival, animals are uniquely identified via an eartag. Animals are purchased from Charles River Canada (St-Constant, Canada). Following an examination by a qualified In-Life Specialist (including body weight determination), animals are acclimated to the testing facilities for ca 72 hr prior to test article administration. Room conditions are: temperature ca 20° C., humidity ca 50%. Animals are housed in solid bottom polycarbonate cages equipped with a filter top to avoid contamination, fed with standard certified rodent food (brand and lot no. to be documented in the raw data). The animals had continuous access to RO/UV water, via bottles. All rats are administered the compounds intravenously (Groups 1 and 2) in a jugular vein under light isoflurane anesthesia or orally by capsule (one per animal) using a specially designed capsule delivery tube (Groups 3-14). The dose volume is 5.0 ml/kg for groups 1 and 2 and one capsule/animal for Groups 3 to 14. Prior to dosing, each animal is weighed and the weight recorded. […] Plasma concentrations of each compound are determined using an LCMS assay (non-GLP) with an analytical range of ca 25-1000 ng/mL. […]

[4] = Maximum water solubility of TEEE; assay type: physicochemical
Experimental: The compound described is a selective IL-23 receptor antagonist peptide comprising D-amino acids with the formula cyclo-D-[…] (SEQ ID NO: 3), where any amino acid is a D-amino acid, MW: ca. 1039, hereafter designated TEEE, supplied by Allostera Pharma as a dry powder, and is formulated for intravenous at 0.02 and 0.2 mg/mL in sterile saline by dilution of an initial stock prepared at 2 mg/mL. Additionally, 4 different formulations of dry TEEE are prepared in gelatin capsules. For each type of dry formulation 10 capsules are prepared to contain enough test article in a way to deliver ca 2.5, 5.0 or 10 mg/kg. […] Solutions and capsules are stored at ca 4° C. upon until dose administration. The intravenous formulation is kept at room temperature pending dose administration. The final appearance of the intravenous formulations consists of clear solutions.

Chain of somatostatin receptor (SSTR) subtype 2 (P30874 whole entry): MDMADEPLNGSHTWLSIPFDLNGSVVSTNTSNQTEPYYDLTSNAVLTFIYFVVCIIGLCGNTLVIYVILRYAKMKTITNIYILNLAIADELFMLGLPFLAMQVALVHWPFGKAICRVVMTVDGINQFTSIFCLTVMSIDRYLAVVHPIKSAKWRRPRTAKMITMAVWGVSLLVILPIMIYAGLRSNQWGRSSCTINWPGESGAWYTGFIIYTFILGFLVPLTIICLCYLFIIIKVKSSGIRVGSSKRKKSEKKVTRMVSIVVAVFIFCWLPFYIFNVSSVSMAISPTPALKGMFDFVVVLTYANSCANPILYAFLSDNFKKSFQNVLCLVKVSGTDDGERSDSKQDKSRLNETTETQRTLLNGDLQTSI

## CC(C)[C@@H]1NC(=O)[C@H](CCCCN)NC(=O)[C@@H](Cc2c[nH]c3ccccc23)NC(=O)[C@H](Cc2ccc(O)cc2)NC(=O)[C@H](NC(=O)[C@H](N)Cc2ccc3ccccc3c2)CSSC[C@H](C(=O)N[C@H](C(N)=O)[C@@H](C)O)NC1=O [lanreotide, (4S,7S,10S,13R,16S,19S)-10-(4-aminobutyl)-19-[[(2R)-2-amino-3-naphthalen-2-yl-propanoyl]amino]-N-[(1S,2R)-1-carbamoyl-2-hydroxy-propyl]-16-[(4-hydroxyphenyl)methyl]-13-(1H-indol-3-ylmethyl)-6,9,12,15,18-pentaoxo-7-propan-2-yl-1,2-dithia-5,8,11,14,17-pentazacycloicosane-4-carboxamide] (H-[d2Nal][dC]Y[dW]KV[dC]T-NH2; disulfide 2-7)
[1]
  binding affinity: high

## calcitonin
[2]
  average bioavailability: about 3%

## cyclo-D-TEEEQQYL (cyclo([dT][dE][dE][dE][dQ][dQ][dY][dL]); SMILES CC(C)C[C@H]1NC(=O)[C@@H](Cc2ccc(O)cc2)NC(=O)[C@@H](CCC(N)=O)NC(=O)[C@@H](CCC(N)=O)NC(=O)[C@@H](CCC(=O)O)NC(=O)[C@@H](CCC(=O)O)NC(=O)[C@@H](CCC(=O)O)NC(=O)[C@@H]([C@H](C)O)NC1=O)
[3]
  clinical signs: No clinical signs
[4]
  maximum water solubility: approximately 10 mg/mL
